Consider seven molecules from ChEMBL document CHEMBL4000250, “Synthesis of new derivatives of 21-imidazolyl-16-dehydropregnenolone as inhibitors of 5α-reductase 2 and with cytotoxic activity in cancer cells” (Bioorg Med Chem, 2017).

For data set [1], the target named is T1, 3-oxo-5-alpha-steroid 4-dehydrogenase 1 (Rattus norvegicus, UniProt P24008).
T1 sequence (P24008 whole entry): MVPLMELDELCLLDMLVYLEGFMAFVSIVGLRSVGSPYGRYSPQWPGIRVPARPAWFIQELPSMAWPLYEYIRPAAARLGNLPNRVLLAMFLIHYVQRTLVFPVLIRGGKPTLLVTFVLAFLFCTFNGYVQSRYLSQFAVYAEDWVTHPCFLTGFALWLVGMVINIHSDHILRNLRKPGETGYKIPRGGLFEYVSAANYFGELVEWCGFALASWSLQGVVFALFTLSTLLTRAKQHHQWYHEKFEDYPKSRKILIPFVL
Put plainly: Inhibition of rat liver microsomal 5-alpha reductase 1 assessed as decrease in conversion of testosterone to dihydrotestosterone by chromatographic method.

The target of data set [2] is T2, 3-oxo-5-alpha-steroid 4-dehydrogenase 2 (Homo sapiens, UniProt P31213).
T2 sequence (P31213 whole entry): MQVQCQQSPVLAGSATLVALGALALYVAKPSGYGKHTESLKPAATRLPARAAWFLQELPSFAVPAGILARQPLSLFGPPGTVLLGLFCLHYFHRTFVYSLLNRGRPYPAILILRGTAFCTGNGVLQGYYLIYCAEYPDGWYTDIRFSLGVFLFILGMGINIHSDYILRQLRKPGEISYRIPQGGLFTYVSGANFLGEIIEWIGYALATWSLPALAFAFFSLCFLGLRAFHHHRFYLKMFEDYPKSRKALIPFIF
Put plainly: Inhibition of human prostate 5-alpha reductase 2 assessed as decrease in conversion of testosterone to dihydrotestosterone by chromatographic method.

Data set [3] addresses T3, Androgen receptor (Rattus norvegicus) (UniProt P15207).
T3 sequence (whole entry): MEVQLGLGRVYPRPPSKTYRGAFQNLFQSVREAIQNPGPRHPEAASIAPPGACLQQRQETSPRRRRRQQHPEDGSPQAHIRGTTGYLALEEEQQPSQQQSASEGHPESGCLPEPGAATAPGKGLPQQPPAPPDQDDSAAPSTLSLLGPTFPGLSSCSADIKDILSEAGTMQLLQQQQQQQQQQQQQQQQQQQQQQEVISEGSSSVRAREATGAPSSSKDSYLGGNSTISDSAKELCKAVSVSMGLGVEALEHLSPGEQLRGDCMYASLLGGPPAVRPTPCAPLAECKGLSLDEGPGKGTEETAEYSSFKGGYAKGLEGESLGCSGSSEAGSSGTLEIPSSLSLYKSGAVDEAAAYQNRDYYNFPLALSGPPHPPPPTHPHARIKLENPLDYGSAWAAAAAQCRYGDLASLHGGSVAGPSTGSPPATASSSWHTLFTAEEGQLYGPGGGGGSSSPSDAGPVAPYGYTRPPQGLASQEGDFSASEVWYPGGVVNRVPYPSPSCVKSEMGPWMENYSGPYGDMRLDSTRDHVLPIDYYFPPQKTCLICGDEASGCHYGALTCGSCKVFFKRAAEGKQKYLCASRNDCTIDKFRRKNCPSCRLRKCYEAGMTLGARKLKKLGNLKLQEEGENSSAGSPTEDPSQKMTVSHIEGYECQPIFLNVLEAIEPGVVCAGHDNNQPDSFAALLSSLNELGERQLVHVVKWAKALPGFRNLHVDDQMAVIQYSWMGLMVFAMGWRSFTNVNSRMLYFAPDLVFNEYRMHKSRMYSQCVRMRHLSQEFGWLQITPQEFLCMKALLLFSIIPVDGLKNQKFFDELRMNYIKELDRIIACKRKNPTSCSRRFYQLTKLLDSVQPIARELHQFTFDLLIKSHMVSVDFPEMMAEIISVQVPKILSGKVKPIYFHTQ
The data set can be described thus: Displacement of [3H]-MIB from rat prostate cytosolic androgen receptor by liquid scintillation counting method.

Data set [4] relates to PC-3. The data set can be described thus: Cytotoxicity against human PC3 cells assessed as growth inhibition at 50 uM after 48 hrs by sulforhodamine B assay relative to control. Format: functional. The following applies: for inhibition of growth at 50 µM: PC-3, 48 h, read-out: GI.
Data set [5] concerns MCF7. Put plainly: Cytotoxicity against human MCF7 cells assessed as growth inhibition at 50 uM after 48 hrs by sulforhodamine B assay relative to control. Format: functional. The settings on record: for inhibition of growth at 50 µM: MCF7, 48 h, read-out: GI.
The test system of data set [6] is SK-LU-1. The data set can be described thus: Cytotoxicity against human SKLU1 cells assessed as growth inhibition at 50 uM after 48 hrs by sulforhodamine B assay relative to control. Format: functional. The following applies: for inhibition of growth at 50 µM: SK-LU-1, 48 h, read-out: GI.
Data set [7] deals with Syrian golden hamster. The data set can be described thus: Hyperplasia activity in castrated golden hamster assessed as prostate weight at 2 mg/kg, sc co-administered with testosterone for 6 days (reference value: 98 +/- 12.6 mg). Format: functional, Mesocricetus auratus.
Data set [8] concerns Syrian golden hamster. Put plainly: Hyperplasia activity in castrated golden hamster assessed as seminal vesicles weight at 2 mg/kg, sc co-administered with testosterone for 6 days (reference value: 200.6 +/- 55 mg). The format is functional, Mesocricetus auratus.
Data set [9] relates to Syrian golden hamster. Put plainly: Hyperplasia activity in castrated golden hamster assessed as diameter of pigmented spot of flank organs at 2 mg/kg, sc administered for 6 days (reference value: 5.65 +/- 1.12 mm). Format: functional, Mesocricetus auratus.
Data set [10] deals with Syrian golden hamster. The data set can be described thus: Toxicity in castrated golden hamster at 2 mg/kg, sc co-administered with testosterone for 6 days. Format: organism-based, Mesocricetus auratus. The settings on record: in vivo, 144 h.

The structures appear in SMILES notation. Calls of active or inactive are those of the source. No cut-off for these calls is given here.

Regarding `CCCCCC(=O)O[C@H]1CC[C@@]2(C)C(=CC[C@@H]3[C@@H]2CC[C@]2(C)C(C(=O)Cn4ccnc4)=CC[C@@H]32)C1`, the half-maximal inhibitory concentration (IC50) entry in data set [1] and in [2] was “Not Active” in each case. Moreover, in data set [3], the inhibition entry is “inactive”. Also, the inhibition of growth at 50 µM in [4] came to 17.2%; in data set [5] it was 28.1%; in [6], 28.5%. Also, the Activity is 71.85 mg in [7], 198.33 mg in data set [8], 3.36 mm in data set [9] and “Non-Toxic” in data set [10].
In the case of `CC(=O)O[C@H]1CC[C@@]2(C)C(=CC[C@@H]3[C@@H]2CC[C@]2(C)C(C(=O)Cn4ccnc4)=CC[C@@H]32)C1`, the IC50 entry is “Not Active” in data set [1] and 122 µM in data set [2] (read-out: IC50). Besides, the inhibition entry in data set [3] is “inactive”. Moreover, the inhibition of growth at 50 µM is 79.6% in data set [4], 77.9% in [5] and 96.7% in [6]. For the same molecule, the Activity in data set [7] is 85.8 mg; in data set [8] it was 200.5 mg; in data set [9] it was 3.06 mm; in data set [10], “Non-Toxic”.
Regarding `CCCCC(=O)O[C@H]1CC[C@@]2(C)C(=CC[C@@H]3[C@@H]2CC[C@]2(C)C(C(=O)Cn4ccnc4)=CC[C@@H]32)C1`, the half-maximal inhibitory concentration (IC50) result in data set [1] and in data set [2] was “Not Active” in each case. Also, in [3], the inhibition entry is “inactive”. Further, the inhibition of growth at 50 µM was 23.7% in data set [4], 51.3% in data set [5] and 39.2% in data set [6]. For the same molecule, the Activity in data set [7] is 80.93 mg; in [8], 198.33 mg; in [9] it was 2.94 mm; in data set [10], “Non-Toxic”.
Consider `C[C@]12CC[C@H](OC(=O)C3CC3)CC1=CC[C@@H]1[C@@H]2CC[C@]2(C)C(C(=O)Cn3ccnc3)=CC[C@@H]12`, for which the IC50 entry in data set [1] is “Not Active”; in data set [2] (read-out: IC50), 0.711 µM. Besides, the inhibition result in data set [3] was “inactive”. Further, the “growth inhibition (GI)” value in data set [4], in data set [5] and in [6] was “inactive” each time. The Activity was 77.1 mg in [7], 160.9 mg in data set [8], 3.4 mm in data set [9] and “Non-Toxic” in data set [10].
As for `C[C@]12CC[C@H](O)CC1=CC[C@@H]1[C@@H]2CC[C@]2(C)C(C(=O)Cn3ccnc3)=CC[C@@H]12`, the IC50 result was “Not Active” in data set [1] and 119 µM in [2] (read-out: IC50). Further, in [3], the inhibition entry was “inactive”. For the same molecule, the inhibition of growth at 50 µM in [4] turned out to be 96.2%; in [5] it was 89.4%; in [6] it was 74.8%.
`CCC(=O)O[C@H]1CC[C@@]2(C)C(=CC[C@@H]3[C@@H]2CC[C@]2(C)C(C(=O)Cn4ccnc4)=CC[C@@H]32)C1`: the IC50 entry in [1] and in data set [2] was “Not Active” throughout. In data set [3], the inhibition entry is “inactive”. Also, the figures for the inhibition of growth at 50 µM in data set [4], in data set [5] and in data set [6] were 22.6%, 0% and 16.8%, respectively. Also, the Activity in data set [7] is 88.4 mg; in data set [8], 231.7 mg; in data set [9], 1.8 mm; in data set [10], “Non-Toxic”.
Consider `CC(=O)O[C@H]1CC[C@@]2(C)C(=CC[C@@H]3[C@@H]2CC[C@]2(C)C(C(C)=O)=CC[C@@H]32)C1`, for which the IC50 result in data set [1] and in [2] was “Not Active” in each case. The inhibition result in data set [3] is “inactive”. The inhibition of growth at 50 µM in [4] came to 21.4%; in data set [5] it was 25.5%; in [6], 12.8%.
